The source of these data is US5560912A, “Method for inhibiting growth of helicobacter pylori” (Technion Research & Development Foundation Ltd., priority 1994, dated 1996).

Experiment [1] deals with Helicobacter pylori. The experiment can be described thus: Filter paper disc diffusion method, zone of inhibition. Format: cell-based. The procedure:
The inhibition effect was determined in-vitro, using the "Filter paper disc diffusion method" as described by Laura L. Zaika, (journal of Food Safety 9,1988,p.97-118). According to the method used, an extract of the plant was deposited on a small filter paper disc having a diameter of 0.5 cm and then placed in the center of a Petri plate containing agar growth medium inoculated with the test microorganism. The plate was incubated under microaerophilic conditions in anaerobic jars at 37° C. for 3 to 4 days and observed for microbial growth. If the extract of Cinnamon exerts antimicrobial activity, the microorganism will not grow in an area surrounding the filter paper disc. This clear area, defined as "zone of inhibition" was measured and recorded in mm. This method is well-known also for determining the activity of an antibiotic compound, by measuring the zone of inhibition arround a disc containing a sample of the antibacterial compound to be tested.
The assays used for the bacterial growth inhibition were as follows:
Two organic Cinnamon extracts, methylene chloride and ethanol in concentrations of 0.05 mg and 0.1 mg respectively were spotted on standard discs and placed on Egg Yolk Emulsion agar plate center which was previously layered with 0,1 ml of a bacterial suspension having a concentration of 10^7 CFU ml.
After the required incubation, the inhibition zone was recorded. In FIG. 2,there are presented the sensitivity of Helicobacter pylori, as determined by the inhibition diameter, using two organic extracts of Cinnamon (0,05 mg and 0.1 mg dry weight) compared with antibiotics: ampicillin (0.0. mg), tetracycline (0.03 mg), erythromycine (0.015 mg) nalidixic acid (0.03 mg), cotrimoxazole (0.025 mg). In these tests, two isolates of H.pylori were used.
The tests were carried out on Egg Yolk Emulsion agar plate, the Cinnamon concentrations on disk were in the range of […].

Experiment [2] concerns Helicobacter pylori. The experiment is described as above. Particulars: read-out: Inhibition zone. Type of experiment: cell-based.
Setting [3] is: Helicobacter pylori, read-out: Inhibition zone.

Take `COc1ccccc1/C=C/C=O`: the “inhibition of H. pylori growth, in words” value with Helicobacter pylori [1] is “beneficial effect on the inhibition but with a higher concentration”. Also, the Inhibition zone in the experiment on Helicobacter pylori [1] (0.2 mg/disk, * = substantial complete inhibition) stood at 44 mm; with Helicobacter pylori [1] (0.4 mg/disk), 57 mm; with Helicobacter pylori [1] (0.6 mg/disk), 68 mm.
For the molecule `CC1=CCC2CC1C2(C)C` (stereo not drawn) [Alpha-pinene], in the experiment on Helicobacter pylori [2], the zone of inhibition at 2000 µg/disc was determined as 18 mm.
Turning to `CC1=CC=C(C(C)C)CC1` [Alpha-terpinene], the “inhibition of H. pylori growth, in words” value in the experiment on Helicobacter pylori [1] is recorded as “only a lower inhibition zone”. Moreover, the zone of inhibition at 2000 µg/disc in the experiment on Helicobacter pylori [2] came to 17 mm.
With `O=C(OCc1ccccc1)c1ccccc1` [Benzyl-benzoate], the zone of inhibition at 2000 µg/disc in the experiment on Helicobacter pylori [2] came out at 17 mm.
In the case of `O=CC=Cc1ccccc1` [Cinnamaldehyde], in the experiment with Helicobacter pylori [1], the “inhibition of H. pylori growth, in words” value is listed as “substantial complete inhibition”. Besides, in the experiment on Helicobacter pylori [1] (setting [3]), the zone of inhibition at 50 µg/disc was 45 mm, the zone of inhibition at 100 µg/disc came out at 60 mm and the zone of inhibition at 200 µg/disc was > 90 mm.
As for `OC/C=C/c1ccccc1` [Cinnamic alcohol], the “inhibition of H. pylori growth, in words” value with Helicobacter pylori [1] was “only a lower inhibition zone”. Further, in the experiment with Helicobacter pylori [1] (setting [3]), the zone of inhibition at 200 µg/disc was found to be 12 mm. The zone of inhibition at 400 µg/disc in the experiment with Helicobacter pylori [1] (Helicobacter pylori, 0.4 mg/disk) was found to be 20 mm.
As for `CC1=CCC(O)(C(C)C)CC1` (stereo not shown) [Terpinen-4-ol], the zone of inhibition at 2000 µg/disc with Helicobacter pylori [2] is 22 mm.
